In the assay the test system is HCV (Ib) RNA replication, Huh-ET replicon cells. Nature of the assay: Cell-based luciferase reporter HCV (Ib) RNA replication assay. To be noted: Hepatitis C virus, 96 h.
The mark [1] stands for this setting: HCV 1b replicon, luciferase, 4 days, read-out: EC50_ib.

Read-outs that look alike come from different tables or passages of the source.

Description: Cell-Based Luciferase Reporter HCV (Ib) RNA Replication Assay Cell Culture
This cell line allows measurement of HCV RNA replication and translation by measuring luciferase activity. […] The Huh-ET cell line has the same features as those mentioned for Huh-5.2 cell line, except that ET cells are more robust and contain an adaptative mutation in the HCV NS4B gene instead of NS5A. Both cell lines are maintained in cultures at a sub-confluent level (<85%) as the level of replicon RNA is highest in actively proliferating cells. The culture media used for cell passaging consist of DMEM (Gibco BRL Laboratories, Mississauga, ON, Canada) supplemented with 10% foetal bovine serum with 1% penicilin/streptomycin, 1% glutamine, 1% sodium pyruvate, 1% non-essential amino acids, and 180 μg/ml of G418 final concentration. Cells are incubated at 37° C., in an atmosphere of 5% CO2 and passaged twice a week to maintain sub-confluence.
Approximately 3000 viable Huh-ET cells (100 μl) are plated per well in a white opaque 96-well microtiter plate. The cell culture media used for the assay is the same as described above except that it contains no G418 and no phenol red. After an incubation period of 3-4 hours at 37° C. in a 5% CO2 incubator, compounds (100 μl) are added at various concentrations. Cells are then further incubated for 4 days at 37° C. in a 5% CO2 incubator. Thereafter, the culture media is removed and cells are lysed by the addition of 95 μL of the luciferase buffer (luciferin substrate in buffered detergent). Cell lysates are incubated at room temperature and protected from direct light for at least 10 minutes. Plates are read for luciferase counts using a luminometer (Wallac MicroBeta Trilux, Perkin Elmer™, MA, USA).
Curves are fitted to data points using nonlinear regression analysis, and IC50s are interpolated from the resulting curve using GraphPad Prism software, version 2.0 (GraphPad Software Inc., San Diego, Calif., USA).

`CCCCN(Cc1nc2cc(C#Cc3ccc4[nH]c(C(=O)NC5CC5)cc4c3)ccc2[nH]1)C(=O)OCc1ccccc1` [Compound 1]: the EC50 under setting [1] is 0.005 to 5 µM. In the case of `CC(C)(C)OC(=O)N1CCC[C@@H]1c1cn2cc(-c3ccc(-c4ccc5nc([C@H]6CCCN6C(=O)OC(C)(C)C)cn5c4)cc3)ccc2n1` [Compound 2], the EC50 under setting [1] was in the range of 0.005 to 5 µM. As to `c1cc(-c2ccc3nc([C@H]4CCCN4)cn3c2)ccc1-c1ccc2nc([C@H]3CCCN3)cn2c1` [Compound 3], the EC50 under setting [1] was in the range of 0.005 to 5 µM. Regarding `COC(=O)N[C@H](C(=O)N1C[C@@H](C)CC1c1nc2cc(-c3ccc(-c4ccc5nc(C6C[C@H](C)CN6C(=O)[C@@H](NC(=O)OC)C(C)C)oc5c4)cc3)ccc2[nH]1)C(C)C` (stereo partly shown) [Compound 47], the EC50 (read-out: EC50_ib (uM)) is < 0.005 µM.

(Values after patent publication US20130085150A1, “ANALOGUES FOR THE TREATMENT OR PREVENTION OF FLAVIVIRUS INFECTIONS” (Vertex Pharmaceuticals Incorporated, priority 2010, published 2013).)
